Results taken from patent US20030235811A1, “Crystallized mammalian carboxylesterase polypeptide and screening methods employing same” (priority 2002, published 2003).

How the values were obtained:
[1] = humans; cited from earlier work
[2] = target: T1, wild type rCE (Oryctolagus cuniculus, UniProt P12337); assay: CD thermal denaturation of wild type rCE in the presence of 4PP; format: binding, rabbit; conditions: 1 mM βME
T1 construct: made in house; host or cells: Spodoptera frugiperda Sf21 cells, baculovirus, secreted into the medium
T1 sequence (P12337 19-559 limits assumed): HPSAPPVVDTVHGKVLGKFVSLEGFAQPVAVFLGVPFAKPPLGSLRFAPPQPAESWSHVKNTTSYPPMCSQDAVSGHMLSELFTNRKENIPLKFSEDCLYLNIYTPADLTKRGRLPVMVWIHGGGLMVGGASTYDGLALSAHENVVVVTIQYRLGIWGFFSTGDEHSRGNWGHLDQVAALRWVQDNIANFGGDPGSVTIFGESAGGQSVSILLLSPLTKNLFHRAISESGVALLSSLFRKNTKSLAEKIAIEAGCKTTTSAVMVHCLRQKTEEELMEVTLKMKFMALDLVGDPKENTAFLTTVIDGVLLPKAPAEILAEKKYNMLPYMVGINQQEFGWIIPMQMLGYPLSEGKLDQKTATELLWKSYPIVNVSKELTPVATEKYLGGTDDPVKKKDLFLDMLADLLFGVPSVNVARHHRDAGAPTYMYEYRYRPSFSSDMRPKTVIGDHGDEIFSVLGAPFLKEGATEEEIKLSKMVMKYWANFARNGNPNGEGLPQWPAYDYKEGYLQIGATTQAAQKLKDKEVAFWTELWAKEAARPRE
Description: (§1) Experiments were conducted by monitoring rCE denaturation in an Applied Photophysics PISTAR-180™ CD spectropolarimeter (Applied Photophysics, Surrey, United Kingdom). Deglycosylated rCE was generated by an 18-hour treatment with 0.25 μM PNGase F (Hampton Research, Laguna Niguel, Calif., United States of America) at 37° C., which cleaves the complete high-mannose glycosyl group. Removal of the carbohydrate chains was confirmed by SDS-PAGE. Wild type protein was also heated to 37° C. for 18 hours before CD experiments. Wild type or deglycosylated rCE (0.15 mg ml^−1 (2.5 μM); in 10 mM phosphate buffer, pH 7.0, and 1 mM fresh beta-mercaptoethanol (βME) to eliminate the stabilizing effect of disulfide linkages) was treated with no 4PP or with 0.016 mM, 0.16 mM, 1.6 mM or 10 mM 4PP. The temperature was increased from 20 to 98° C. while monitoring the ellipticity at 222 nm. […]
(§2) To confirm the significance of the 4PP bound to the surface of rCE, thermal denaturation studies were performed using CD on both wild type and deglycosylated rCE. […] In the presence of fresh reducing agent (1 mM β-mercaptoethanol (βME)), thermal denaturation of wild type and deglycosylated rCE was monitored alone and in the presence of 10-(0.016 mM), 100-(0.16 mM), 1,000-(1.6 mM) and 6,000-fold (10 mM) molar excess 4PP (FIGS. 7-9). […]

[3] = target: T2, deglycosylated rCE (Oryctolagus cuniculus, UniProt P12337); assay: CD thermal denaturation of deglycosylated rCE in the presence of 4PP; format: binding, rabbit
T2 construct: made in house; host or cells: Spodoptera frugiperda Sf21 cells, baculovirus, secreted; then PNGase F treatment
T2 sequence (P12337 19-559): T1 sequence (P12337 19-559 limits assumed)
Description: as §1, §2

[4] = target: hCE1 (Homo sapiens, UniProt P23141)
Sequence of hCE1 (P23141 18-560 isoform P23141-3 limits assumed): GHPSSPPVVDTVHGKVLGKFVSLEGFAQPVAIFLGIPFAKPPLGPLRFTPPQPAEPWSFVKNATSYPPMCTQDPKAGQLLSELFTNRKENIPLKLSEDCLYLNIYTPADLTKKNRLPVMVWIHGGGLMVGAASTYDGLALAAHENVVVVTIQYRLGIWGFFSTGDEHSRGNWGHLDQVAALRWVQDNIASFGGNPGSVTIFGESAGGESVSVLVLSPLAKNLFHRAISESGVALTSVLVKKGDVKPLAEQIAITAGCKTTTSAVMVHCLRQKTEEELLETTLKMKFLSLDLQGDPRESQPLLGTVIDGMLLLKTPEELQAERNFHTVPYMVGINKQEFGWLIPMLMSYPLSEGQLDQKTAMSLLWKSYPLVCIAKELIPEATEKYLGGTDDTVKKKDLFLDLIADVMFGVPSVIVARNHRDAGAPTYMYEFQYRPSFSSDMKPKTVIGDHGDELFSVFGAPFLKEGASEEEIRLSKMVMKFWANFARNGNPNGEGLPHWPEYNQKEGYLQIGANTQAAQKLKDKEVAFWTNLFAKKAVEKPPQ
Description: A 62 kDa C-terminally-truncated form of human carboxylesterase 1 (hCE1; SEQ ID NO: 4) that lacks six C-terminal amino acids, allowing secretion of the expressed enzyme (baculovirus in Spodoptera frugiperda Sf21 cells) into the culture media, was employed. hCE1 was purified by preparative isoelectric focusing and size exclusion chromatography (BIO-GEL® P-100, Bio-Rad, Laboratories, Hercules, Calif.) from protein-free culture media. Purified hCE1 was concentrated to 5 mg ml^−1 in 20 mM HEPES pH 7.4, and crystallized in the presence of either 10 mM tacrine or 100 mM homatropine. […]
Diffraction data were collected at Stanford Synchrotron Radiation Laboratory (SSRL) beamline 9-1, and were processed and reduced using MOSFILM (Leslie, (1992), Joint CCP4+ESF-EAMCB Newsletter on Protein Crystallography, No. 26.). […] The structures of hCE1 were determined by molecular replacement using the structure of rabbit carboxylesterase (rCE; RCSB Protein ID No. 1K4Y; Bencharit et al., (2002) Nat.Struct.Biol. 9: 337), also an aspect of the present invention, as a search model (81% sequence identity). […] Manual adjustments and rebuilding were performed using the program O (Jones et al., (1991) Acta Crystallogr. A 47: 110-119) and σA-weighted electron density maps (Read, (1986) Acta Crystallogr. A 42: 140-149). […]

[5] = target: the molecule itself; assay: X-ray crystal structure (self-association, homotrimer)
Description: Diffraction data were collected at Stanford Synchrotron Radiation Laboratory (SSRL) beamline 9-1, and were processed and reduced using MOSFILM (Leslie, (1992), Joint CCP4+ESF-EAMCB Newsletter on Protein Crystallography, No. 26.). Crystals were of space group P2₁, and contained six molecules in the asymmetric unit for both the tacrine and homatropine complexes. See FIG. 12, in which each hCE1 is depicted in a different color. The structures of hCE1 were determined by molecular replacement using the structure of rabbit carboxylesterase (rCE; RCSB Protein ID No. 1K4Y; Bencharit et al., (2002) Nat.Struct.Biol. 9: 337), also an aspect of the present invention, as a search model (81% sequence identity). Non-identical side chains were trimmed prior to rotation and translation function searches in AmoRe (Navaza & Saludjian, (1997) Methods Enzymol. 276A: 581-594). The structures were refined using torsion angle dynamics in CNS with the maximum likelihood function target, and included an overall anisotropic B-factor and a bulk solvent correction. […] Manual adjustments and rebuilding were performed using the program O (Jones et al., (1991) Acta Crystallogr. A 47: 110-119) and σA-weighted electron density maps (Read, (1986) Acta Crystallogr. A 42: 140-149). […]

CCc1c2c(nc3ccc(O)cc13)-c1cc3c(c(=O)n1C2)COC(=O)[C@]3(O)CC [SN-38]
share of the SN-38 generated by activation of CPT-11 that makes it to the tumor [1]: ~2%

C1CCN(C2CCNCC2)CC1 [4PP, 4-piperidino-piperidine]
melting temperature (Tm) of wild type rCE ([2]; 10- to 100-fold molar excess of 4PP (0.016-0.16 mM)): 51 °C
melting temperature (Tm) of wild type rCE ([2]; higher concentrations of 4PP (1.6 mM, 10 mM)): 54-55 °C
effect on thermal stability of deglycosylated rCE ([3]; high concentrations of 4PP): stabilization occurs only with high concentrations
effect on thermal stability of deglycosylated rCE ([3]; lower concentrations of 4PP): destabilize the enzyme

Nc1c2c(nc3ccccc13)CCCC2 [tacrine, 1,2,3,4-tetrahydro-9-acridinamine]
binding to hCE1 [4]: binds effectively

B1: human carboxylesterase 1 (hCE1), 62 kDa C-terminally-truncated form lacking six C-terminal amino acids (enzyme)
chain: GHPSSPPVVDTVHGKVLGKFVSLEGFAQPVAIFLGIPFGKPPLGPLRFTPPQPAEPWSFVKNATSYPPMCTQDPKAGQLLSELFTNRKENIPLKLSEDCLYLNIYTPADLTKKNRLPVMVWIHGGGLMVGAASTYDGLALAAHENVVVVTIQYRLGIWGFFSTGDEHSRGNWGHLDQVAALRWVQDNIASFGGNPGSVTIFGESAGGESVSVLVLSPLAKNLFHRAISESGVALTSVLVKKGDVKPLAEQIAITAGCKTTTSAVMVHCLRQKTEEELLETTLKMKFLSLDLQGDPRESQPLLGTVIDGMLLLKTPEELQAERNFHTVPYMVGINKQEFGWLIPMLMSYPLSEGQLDQKTAMSLLWKSYPLVCIAKELIPEATEKYLGGTDDTVKKKDLFLDLIADVMFGVPSVIVARNHRDAGAPTYMYEFQYRPSFSSDMKPKTVIGDHGDELFSVFGAPFLKEGASEEEIRLSKMVMKFWANFARNGNPNGEGLPHWPEYNQKEGYLQIGANTQAAQKLKDKEVAFWTNLFAKKAVEKPPQT
modifications: N-linked glycans (added to the model in refinement; positions not stated for the crystallised protein)
notes: Expressed by baculovirus in Spodoptera frugiperda Sf21 cells and secreted into the culture media; crystallised with tacrine or homatropine; also called human CE; human CE1
binding result [5]: binds
